Among the data in ChEMBL document CHEMBL1159260, “Muricatocins A and B, two new bioactive monotetrahydrofuran Annonaceous acetogenins from the leaves of Annona muricata” (J Nat Prod, 1995) are EC50 and LC50 values, retold here.

For series [1], the system named is MCF7. As to the kind of experiment: Cytotoxicity against human MCF7 cells after 7 days by MTT assay. The class given is functional. The settings on record: MCF7, 168 h, read-out: ED50 (the source's name).
Series [2] relates to A549. As to the kind of experiment: Cytotoxicity against human A549 cells after 7 days by MTT assay. The class given is functional. The settings on record: A549, 168 h, read-out: ED50 (the source's name).
A short description of series [3]: Toxicity against brine shrimp. The class given is organism-based. Particulars: artemia, in vivo.
The test system of series [4] is HT-29. As to the kind of experiment: Cytotoxicity against human HT-29 cells after 7 days by MTT assay. Type of series: functional. Particulars: HT-29, 168 h, read-out: ED50 (the source's name).

Structures are written as SMILES. Converted amounts (≈) assume the structure as drawn. Where only a bound is given, the exact number is not on record here.

For `COc1cccc2c1C(=O)c1c(O)c3c(c(O)c1C2=O)C[C@@](O)(C(=O)CO)C[C@@H]3O[C@H]1C[C@H](N)[C@H](O)[C@H](C)O1` [DOXORUBICIN], the EC50 in series [1] turned out to be 0.142 µg/mL (≈ 0.261 µM); in series [2] it was 0.00356 µg/mL (≈ 0.00655 µM).

For the compound `CCCCCCCCCCCC[C@H](O)[C@H]1CC[C@H]([C@H](O)CC[C@H]2C[C@@H](CCCCC[C@@H](O)CC3=C[C@H](C)OC3=O)OC(C)(C)O2)O1`, the EC50 in series [1] was 0.878 µg/mL (≈ 1.34 µM); in series [4], more than 1 µg/mL; in series [2], 0.00718 µg/mL (≈ 0.011 µM). In series [3], the LC50 is 0.266 µg/mL (≈ 0.407 µM).

For the compound `CCCCCCCCCCCC[C@@H](O)[C@H]1CC[C@H]([C@H](O)CC[C@H]2C[C@@H](CCCCC[C@@H](O)CC3=C[C@H](C)OC3=O)OC(C)(C)O2)O1`, the EC50 was determined as 0.165 µg/mL (≈ 0.253 µM) in series [1], 0.508 µg/mL (≈ 0.778 µM) in series [4] and 0.00367 µg/mL (≈ 0.00562 µM) in series [2]. In series [3], this compound came in with an LC50 of 0.206 µg/mL (≈ 0.315 µM).

Turning to `CCCCCCCCCCCC[C@@H](O)[C@H]1CC[C@H]([C@H](O)CC[C@H](O)C[C@H](O)CCCCC[C@@H](O)CC2=C[C@H](C)OC2=O)O1` [MURICATOCIN A], the EC50 in series [1] was found to be 0.123 µg/mL (≈ 0.201 µM); in series [4] it was 1.56 µg/mL (≈ 2.55 µM); in series [2], 0.0755 µg/mL (≈ 0.123 µM). The compound further returned an LC50 in series [3] of 0.699 µg/mL (≈ 1.14 µM).

With `CCCCCCCCCCCC[C@H](O)[C@H]1CC[C@H]([C@H](O)CC[C@H](O)C[C@H](O)CCCCC[C@@H](O)CC2=C[C@H](C)OC2=O)O1` [MURICATOCIN B], the values for the EC50 in series [1], in series [4] and in series [2] were 0.103 µg/mL (≈ 0.168 µM), 1.66 µg/mL (≈ 2.71 µM) and 0.334 µg/mL (≈ 0.545 µM), respectively. The same compound registered an LC50 in series [3] of 0.557 µg/mL (≈ 0.909 µM).
